In patent publication US6737383B1, “Herbicidal oxadiazolidines” (priority 1999, dated 2004):

Assays:
bedstraw = assay: Test B pre/postemergence bedstraw; format: in vivo, Galium aparine; conditions: Postemergence
How it was run: (§1)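 Test chemicals in a non-phytotoxic solvent mixture with surfactant were sprayed preemergence onto planted seeds and postemergence onto plants 2 to 18 cm tall (1- to 4-leaf stage). After twelve to sixteen days in a greenhouse, injury was visually rated against untreated controls from 0 (no effect) to 10 (complete control).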

blackgrass = assay: Test B pre/postemergence blackgrass; format: in vivo, Alopecurus myosuroides
How it was run: as §1

surinam grass = assay: Test B pre/postemergence surinam grass; format: in vivo, Brachiaria decumbens
How it was run: as §1

cocklebur = assay: Test B pre/postemergence cocklebur; format: in vivo, Xanthium strumarium
How it was run: as §1

corn = assay: Test B pre/postemergence corn; format: in vivo, Zea mays
How it was run: as §1

crabgrass = assay: Test B pre/postemergence crabgrass; format: in vivo, Digitaria sanguinalis
How it was run: as §1

giant foxtail = assay: Test B pre/postemergence giant foxtail; format: in vivo, Setaria faberii
How it was run: as §1

morningglory = assay: Test B pre/postemergence morningglory; format: in vivo, Ipomoea hederacea
How it was run: as §1

pigweed = assay: Test B pre/postemergence pigweed; format: in vivo, Amaranthus retroflexus
How it was run: as §1

rape = assay: Test B pre/postemergence rape; format: in vivo, Brassica napus
How it was run: as §1

soybean = assay: Test B pre/postemergence soybean; format: in vivo, Glycine max
How it was run: as §1

sugar beet = assay: Test B pre/postemergence sugar beet; format: in vivo, Beta vulgaris
How it was run: as §1

velvetleaf = assay: Test B pre/postemergence velvetleaf; format: in vivo, Abutilon theophrasti
How it was run: as §1

wheat = assay: Test B pre/postemergence wheat; format: in vivo, Triticum aestivum
How it was run: as §1

wild oat = assay: Test B pre/postemergence wild oat; format: in vivo, Avena fatua
How it was run: as §1

purple nutsedge = assay: Test B pre/postemergence purple nutsedge; format: in vivo, Cyperus rotundus
How it was run: as §1

rice = assay: Test B flood test rice; format: in vivo, Oryza sativa
How it was run: (§2)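 Plants were grown to the 2-leaf stage before treatment with test chemical, then held in a greenhouse for twelve to sixteen days. Injury was visually rated against untreated controls on a 0–10 scale, where 0 is no effect and 10 is complete control.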

smallflower flatsedge = assay: Test B flood test smallflower flatsedge; format: in vivo, Cyperus difformis
How it was run: as §2

duck salad = assay: Test B flood test duck salad; format: in vivo, Heteranthera limosa
How it was run: as §2

bamyardgrass = assay: Test B flood test barnyardgrass; format: in vivo, Echinochloa crus-galli
How it was run: as §2

[1] = Postemergence, Rate 125 g/ha, scale 0 to 10, 0 is no effect, 10 is complete control
[2] = Postemergence, Rate 250 g/ha, scale 0 to 10
[3] = Postemergence, Rate 500 g/ha, scale 0 to 10, 0 is no effect, 10 is complete control
[4] = Preemergence, Rate 62 g/ha, scale of 0 to 10 where 0 is no effect and 10 is complete control
[5] = Preemergence, Rate 125 g/ha, scale 0 to 10, 0 is no effect, 10 is complete control
[6] = Preemergence, Rate 250 g/ha, scale 0 to 10, 0 is no effect, 10 is complete control
[7] = Preemergence, Rate 500 g/ha, scale 0 to 10, 0 is no effect, 10 is complete control
[8] = Rate 62 g/ha, Postemergence, scale 0 to 10 (0 no effect, 10 complete control)
[9] = Rate 62 g/ha, flood test species, Pre-emergence, visual evaluation after twelve to sixteen days
[10] = Rate 125 g/ha, under heading Pre-emergence, flood test species, visual evaluation after twelve to sixteen days
[11] = Rate 250 g/ha, Pre-emergence (flood test species), scale 0 to 10, 0 is no effect, 10 is complete control
[12] = Rate 500 g/ha, Pre-emergence section of Table B, 0 to 10 scale (0 no effect, 10 complete control)

CC(C)C(=O)Cn1c(=O)on(C(=O)N(c2ccc(Cl)cc2)C(C)C)c1=O [Compound 487]
8: Plant response rating, Giant foxtail (giant foxtail; [3]) | Redroot pigweed plant response rating (pigweed; [5])
6: Bedstraw plant response rating (bedstraw; Rate 250 g/ha, scale 0 to 10) | Plant response rating, Bedstraw (bedstraw; Rate 500 g/ha, scale 0 to 10, 0 is no effect, 10 is complete control) | Plant response rating, Crabgrass (crabgrass; [4]) | Wild oats plant response rating (wild oat; [7])
3: Blackgrass plant response rating (blackgrass; [5]) | Plant response rating, B. signalgrass (surinam grass; [4]) | B. signalgrass plant response rating (surinam grass; [5]) | B. signalgrass plant response rating (surinam grass; [6]) | Crabgrass plant response rating (crabgrass; [1]) | Plant response rating, Redroot pigweed (pigweed; [3]) | Plant response rating, Rape (rape; [3]) | Soybean plant response rating (soybean; [8])
10: Crabgrass plant response rating (crabgrass; [7]) | Giant foxtail plant response rating (giant foxtail; [7]) | Morningglory plant response rating (morningglory; [1]) | Plant response rating, Morningglory (morningglory; [3]) | Redroot pigweed plant response rating (pigweed; [7])
7: Blackgrass plant response rating (blackgrass; [6])
5: B. signalgrass plant response rating (surinam grass; [7]) | Crabgrass plant response rating (crabgrass; [2]) | Plant response rating, Crabgrass (crabgrass; [3]) | Plant response rating, Soybean (soybean; [3])
0: Bedstraw plant response rating (bedstraw; Rate 62 g/ha, scale 0 to 10 (0 no effect, 10 complete control)) | Blackgrass plant response rating (blackgrass; [1]) | Blackgrass plant response rating (blackgrass; [2]) | Blackgrass plant response rating (blackgrass; [8]) | B. signalgrass plant response rating (surinam grass; [1]) | B. signalgrass plant response rating (surinam grass; Postemergence, Rate 250 g/ha, scale 0 to 10, 0 no effect, 10 complete control) | Plant response rating, B. signalgrass (surinam grass; [3]) | B. signalgrass plant response rating (surinam grass; [8]) | Cocklebur plant response rating (cocklebur; [1]) | Cocklebur plant response rating (cocklebur; [2]) | Plant response rating, Cocklebur (cocklebur; [3]) | Plant response rating, Cocklebur (cocklebur; [4]) | Cocklebur plant response rating (cocklebur; [6]) | Cocklebur plant response rating (cocklebur; [7]) | Cocklebur plant response rating (cocklebur; [8]) | Corn plant response rating (corn; [1]) | Corn plant response rating (corn; [2]) | Plant response rating, Corn (corn; [3]) | Plant response rating, Corn (corn; [4]) | Corn plant response rating (corn; [5]) | Corn plant response rating (corn; [7]) | Corn plant response rating (corn; [8]) | Crabgrass plant response rating (crabgrass; [8]) | Giant foxtail plant response rating (giant foxtail; [8]) | Plant response rating, Morningglory (morningglory; [4]) | Morningglory plant response rating (morningglory; [5]) | Morningglory plant response rating (morningglory; [7]) | Redroot pigweed plant response rating (pigweed; [8]) | Rape plant response rating (rape; [1]) | Plant response rating, Rape (rape; [4]) | Rape plant response rating (rape; [5]) | Rape plant response rating (rape; [7]) | Rape plant response rating (rape; [8]) | Plant response rating, Soybean (soybean; [4]) | Soybean plant response rating (soybean; [5]) | Soybean plant response rating (soybean; [7]) | Sugarbeets plant response rating (sugar beet; [1]) | Plant response rating, Sugarbeets (sugar beet; [3]) | Plant response rating, Sugarbeets (sugar beet; [4]) | Sugarbeets plant response rating (sugar beet; [5]) | Sugarbeets plant response rating (sugar beet; [7]) | Sugarbeets plant response rating (sugar beet; [8]) | Velvetleaf plant response rating (velvetleaf; [1]) | Plant response rating, Velvetleaf (velvetleaf; [4]) | Velvetleaf plant response rating (velvetleaf; [5]) | Velvetleaf plant response rating (velvetleaf; [7]) | Wheat plant response rating (wheat; [1]) | Plant response rating, Wheat (wheat; [3]) | Plant response rating, Wheat (wheat; [4]) | Wheat plant response rating (wheat; [5]) | Wheat plant response rating (wheat; [7]) | Wheat plant response rating (wheat; [8]) | Wild oats plant response rating (wild oat; [1]) | Plant response rating, Wild oats (wild oat; [3]) | Plant response rating, Wild oats (wild oat; [4]) | Wild oats plant response rating (wild oat; [5]) | Wild oats plant response rating (wild oat; [8]) | Nutsedge plant response rating (purple nutsedge; [1]) | Plant response rating, Nutsedge (purple nutsedge; [3]) | Plant response rating, Nutsedge (purple nutsedge; [4]) | Nutsedge plant response rating (purple nutsedge; [5]) | Nutsedge plant response rating (purple nutsedge; [7]) | Nutsedge plant response rating (purple nutsedge; [8]) | Plant response rating, Rice (0 to 10 scale, 0 is no effect, 10 is complete control) (rice; [9]) | Rice plant response rating (0 to 10 scale, 0 is no effect, 10 is complete control) (rice; [10]) | Rice plant response rating (rice; [11]) | Rice plant response rating (rice; [12]) | Plant response rating, S. Flatsedge (0 to 10 scale, 0 is no effect, 10 is complete control) (smallflower flatsedge; [9]) | S. Flatsedge plant response rating (0 to 10 scale, 0 is no effect, 10 is complete control) (smallflower flatsedge; [10]) | S. Flatsedge plant response rating (smallflower flatsedge; [11]) | S. Flatsedge plant response rating (smallflower flatsedge; [12]) | Plant response rating, Ducksalad (0 to 10 scale, 0 is no effect, 10 is complete control) (duck salad; [9]) | Ducksalad plant response rating (0 to 10 scale, 0 is no effect, 10 is complete control) (duck salad; [10]) | Ducksalad plant response rating (duck salad; [11]) | Ducksalad plant response rating (duck salad; [12]) | Plant response rating, Barnyardgrass (0 to 10 scale, 0 is no effect, 10 is complete control) (bamyardgrass; [9]) | Barnyardgrass plant response rating (0 to 10 scale, 0 is no effect, 10 is complete control) (bamyardgrass; [10]) | Barnyardgrass plant response rating (bamyardgrass; [11]) | Barnyardgrass plant response rating (bamyardgrass; [12])
1: Plant response rating, Blackgrass (blackgrass; [3]) | Plant response rating, Redroot pigweed (pigweed; [4])
9: Blackgrass plant response rating (blackgrass; [7]) | Crabgrass plant response rating (crabgrass; [5]) | Plant response rating, Giant foxtail (giant foxtail; [4]) | Giant foxtail plant response rating (giant foxtail; [5])
4: Soybean plant response rating (soybean; [1])
2: Bedstraw plant response rating (bedstraw; Rate 125 g/ha, scale 0 to 10, 0 is no effect, 10 is complete control) | Plant response rating, Blackgrass (blackgrass; [4]) | Giant foxtail plant response rating (giant foxtail; [1]) | Morningglory plant response rating (morningglory; [8]) | Redroot pigweed plant response rating (pigweed; [1]) | Plant response rating, Velvetleaf (velvetleaf; [3])
